In EP2043663B1, “TOPICAL TREATMENT OF WARTS” (ITH Immune Therapy Holdings AB, priority 2006, dated 2008):

Key:
common wart = assay: Treatment of warts II: gelled aqueous dithionite solution applied to a wart; format: in vivo, person; settings: several drops of freshly prepared aqueous solution containing 2.0 % by weight of hydroxypropylmethyl cellulose; back of hand; rinsed after half an hour; wart wetted three hours from application; wooden spatula
Description: Treatment of warts II. Several drops of freshly prepared aqueous solution of sodium dithionite containing 2.0 % by weight of hydroxypropylmethyl cellulose are applied to a common wart on the back of a persons hand. After half an hour the hand is rinsed with water. Three hours from application the wart is wetted.

epithelial cells = assay: Epithelial cytotoxicity cell assay; format: cell-based; settings: AIM V medium

O=S([O-])S(=O)[O-].[Na+].[Na+] [sodium dithionite]
removability of the wart (common wart): easily removed
effect on the cells (cytotoxicity) (epithelial cells; highest concentration): substantial cell death
effect on the cells (cytotoxicity) (epithelial cells; lowest concentration, 0.001 g/mL): did not affect the cells
